Assay results taken from patent publication US20070060604A1, “Antibiotic pharmaceutical composition with lysergol as bio-enhancer and method of treatment” (COUNCIL OF SCIENTIFIC AND INDUSTRIAL RESEARCH, priority 2002, published 2007).

Columns and labels:
[1] = system: bacteria; experiment: Growth of bacteria in presence of lysergol alone; format: cell-based; settings: bacteria grown in presence of lysergol alone
Text: 1. […] Process for the Isolation of Lysergol

[2] = system: Escherichia coli (ATCC 10536); experiment: Broth assay of killing action of antibiotic alone and with lysergol (viable cell count); settings: E. coli
[3] = system: Bacillus subtilis (ATCC 6051); experiment: as above; settings: B. subtilis; antibiotic 0.4 μg/ml
[4] = system: Mycobacterium smegmatis (ATCC 14468); experiment: as above; settings: M. smegmatis; antibiotic 0.2 μg/ml

SMILES	Killing of bacteria by the compound as such [1]	Survival fraction of viable cells upon treatment with antibiotic alone ([2]; antibiotic 10 μg/ml)	Survival fraction of viable cells upon treatment with antibiotic alone ([2]; antibiotic 20 μg/ml)	Survival fraction of viable cells upon treatment with antibiotic alone [3]	Survival fraction of viable cells upon treatment with antibiotic alone [4]
CN1C[C@H](CO)C=C2c3cccc4[nH]cc(c34)C[C@H]21 [lysergol, 9,10-Didehydro-6-methylergoline-8-[…]-methanol]	no significant killing				
CO[C@H]1/C=C/O[C@@]2(C)Oc3c(C)c(O)c4c(O)c(c(/C=N/N5CCN(C)CC5)c(O)c4c3C2=O)NC(=O)/C(C)=C\C=C\[C@H](C)[C@H](O)[C@@H](C)[C@@H](O)[C@@H](C)[C@H](OC(C)=O)[C@@H]1C [Rifampicin]		0.35-0.45	0.25-0.30	0.085-0.096	0.45-0.54
